Test results reported in ChEMBL document CHEMBL1157914, “5,5'-substituted indirubin-3'-oxime derivatives as potent cyclin-dependent kinase inhibitors with anticancer activity” (J Med Chem, 2010).
pIC50: −log10 of the molar value. Converted amounts (≈) assume the structure as drawn. The source made the active and inactive calls. The calls are words filed in the database; no cut-off is given here.

Assays:
[1] = Cell cycle arrest in rat RK3E cells expressing k-ras assessed as accumulation at sub G0 phase at 2.5 uM after 24 hrs using propidium iodide stain by flow cytometry; format: functional, cell-based
KB = experiment: Antiproliferative activity against human KB cells after 3 days by SRB assay; format: functional, cell-based; details: 72 h
[2] = target: Inhibitor of nuclear factor kappa-B kinase subunit beta (Homo sapiens, UniProt O14920); experiment: Inhibition of recombinant IKK-beta preincubated for 15 mins by HTRF assay
[3] = Cell cycle arrest in rat RK3E cells expressing k-ras assessed as accumulation at G2/M phase at 2.5 uM after 24 hrs using propidium iodide stain by flow cytometry; format: functional, cell-based
[4] = Aqueous solubility of compound in water; format: physicochemical; details: buffer
[5] = Cell cycle arrest in rat RK3E cells expressing k-ras assessed as accumulation at S phase at 1 uM after 24 hrs using propidium iodide stain by flow cytometry; format: functional, cell-based
[6] = Cell cycle arrest in rat RK3E cells expressing k-ras assessed as accumulation at G0/G1 phase at 2.5 uM after 24 hrs using propidium iodide stain by flow cytometry; format: functional, cell-based
[7] = target: Cyclin-dependent kinase 2/cyclin E1 (Homo sapiens, UniProt P24941); experiment: Inhibition of CDK2/cyclin E; format: protein-complex assay
[8] = target: Cyclin-dependent kinase 2/cyclin E1 (Homo sapiens) (UniProt P24864+P24941); experiment: Inhibition of CDK2/cyclin E as percent residual activity; format: protein-complex assay; parameters: Residual activity / inhibition: concentration or dose not given beside the values
[9] = Cell cycle arrest in rat RK3E cells expressing k-ras assessed as accumulation at G2/M phase at 1 uM after 24 hrs using propidium iodide stain by flow cytometry; format: functional, cell-based
[10] = target: Cyclin-dependent kinase 1/cyclin B1 (Homo sapiens) (UniProt P06493+P14635); experiment: Inhibition of CDK1/cyclin B at 1 uM after 40 mins by lequid scintillation counting; format: protein-complex assay
[11] = Solubility of compound in 3 equimolar NaOH and distilled water; format: physicochemical; details: buffer
RK3E [12] = experiment: Antitumor activity against rat RK3E cells expressing k-ras and GFP/Luc genes transplanted in Sprague-Dawley rat assessed as increase in apoptotic cells at 5 mg/kg, iv administered 5 days after tumor implantation for 5 times measured after 11 days by TUNEL assay relative to control; format: functional, organism-based; parameters: dose 5 mg/kg
[13] = Solubility of compound in 2 equimolar NaOH and distilled water; format: physicochemical; details: buffer
Rattus norvegicus = experiment: Toxicity in rat RK3E cells expressing k-ras and GFP/Luc genes transplanted in Sprague-Dawley rat assessed as change in body weight at 5 mg/kg, iv administered 5 days after tumor implantation for 5 times measured after 48 hrs post dose; format: organism-based; parameters: dose 5 mg/kg, route intravenous; details: in vivo
RK3E [14] = experiment: Antitumor activity against rat RK3E cells expressing k-ras and GFP/Luc genes transplanted in Sprague-Dawley rat assessed as decrease of tumor growth at 5 mg/kg, iv administered 5 days after tumor implantation for 5 times measured on day 10 by luciferin bioluminescence assay; format: functional, organism-based; parameters: dose 5 mg/kg
[15] = Cell cycle arrest in rat RK3E cells expressing k-ras assessed as accumulation at sub G0 phase at 1 uM after 24 hrs using propidium iodide stain by flow cytometry; format: functional, cell-based
RK3E [16] = experiment: Antitumor activity against rat RK3E cells expressing k-ras and GFP/Luc genes transplanted in Sprague-Dawley rat assessed as decrease of PCNA expression at 5 mg/kg, iv administered 5 days after tumor implantation for 5 times measured after 11 days by immunohistochemical staining relative to control; format: functional, organism-based; parameters: dose 5 mg/kg
[17] = target: Cyclin-dependent kinase 1/cyclin B1 (Homo sapiens, UniProt P06493); experiment: Inhibition of CDK1/cyclin B after 40 mins by liquid scintillation counting; format: protein-complex assay
MCF7 = experiment: Antiproliferative activity against human MCF7 cells after 3 days by SRB assay; format: functional, cell-based; details: MCF7, 72 h
[18] = Cell cycle arrest in rat RK3E cells expressing k-ras assessed as accumulation at S phase at 2.5 uM after 24 hrs using propidium iodide stain by flow cytometry; format: functional, cell-based
[19] = Cell cycle arrest in rat RK3E cells expressing k-ras assessed as accumulation at G0/G1 phase at 1 uM after 24 hrs using propidium iodide stain by flow cytometry; format: functional, cell-based
[20] = target: T1, High affinity nerve growth factor receptor (Homo sapiens, UniProt P04629); experiment: Inhibition of recombinant TrKa preincubated for 15 mins by HTRF assay
Target sequence in this assay (P04629 whole entry): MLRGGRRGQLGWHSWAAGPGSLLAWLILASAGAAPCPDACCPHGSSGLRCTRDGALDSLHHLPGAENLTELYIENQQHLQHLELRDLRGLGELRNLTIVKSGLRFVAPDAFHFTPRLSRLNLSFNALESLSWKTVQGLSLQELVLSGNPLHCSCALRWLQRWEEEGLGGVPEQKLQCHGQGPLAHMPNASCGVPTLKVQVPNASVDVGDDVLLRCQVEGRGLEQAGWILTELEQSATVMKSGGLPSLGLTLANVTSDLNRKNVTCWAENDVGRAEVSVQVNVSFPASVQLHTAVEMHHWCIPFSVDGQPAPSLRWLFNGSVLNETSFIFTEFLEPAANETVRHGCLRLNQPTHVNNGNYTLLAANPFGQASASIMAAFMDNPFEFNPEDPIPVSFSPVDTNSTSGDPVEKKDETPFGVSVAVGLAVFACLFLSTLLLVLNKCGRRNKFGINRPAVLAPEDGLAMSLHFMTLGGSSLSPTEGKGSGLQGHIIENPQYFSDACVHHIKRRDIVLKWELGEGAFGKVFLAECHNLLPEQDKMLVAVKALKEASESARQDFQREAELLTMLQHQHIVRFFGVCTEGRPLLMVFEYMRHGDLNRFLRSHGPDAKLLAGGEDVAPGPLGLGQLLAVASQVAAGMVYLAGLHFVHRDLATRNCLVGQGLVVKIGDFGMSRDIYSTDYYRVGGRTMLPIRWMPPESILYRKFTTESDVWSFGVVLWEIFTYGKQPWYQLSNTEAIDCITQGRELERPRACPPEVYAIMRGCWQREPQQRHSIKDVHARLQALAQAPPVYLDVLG

[21] = Solubility of compound in 3 equimolar NaOH and 0.1 N NaHCO3 buffer; format: physicochemical
[22] = Antitumor activity against rat RK3E cells expressing k-ras and GFP/Luc genes transplanted in Sprague-Dawley rat assessed as decrease in tumor volume at 5 mg/kg, iv administered 5 days after tumor implantation for 5 times measured after 48 hrs post dose relative to control; format: functional; parameters: scale not given: the % may be the effect or the level left
[23] = target: T1, High affinity nerve growth factor receptor; experiment: Inhibition of recombinant TrKa at 1 uM preincubated for 15 mins by HTRF assay
Target sequence in this assay (P04629 33-796 limits assumed): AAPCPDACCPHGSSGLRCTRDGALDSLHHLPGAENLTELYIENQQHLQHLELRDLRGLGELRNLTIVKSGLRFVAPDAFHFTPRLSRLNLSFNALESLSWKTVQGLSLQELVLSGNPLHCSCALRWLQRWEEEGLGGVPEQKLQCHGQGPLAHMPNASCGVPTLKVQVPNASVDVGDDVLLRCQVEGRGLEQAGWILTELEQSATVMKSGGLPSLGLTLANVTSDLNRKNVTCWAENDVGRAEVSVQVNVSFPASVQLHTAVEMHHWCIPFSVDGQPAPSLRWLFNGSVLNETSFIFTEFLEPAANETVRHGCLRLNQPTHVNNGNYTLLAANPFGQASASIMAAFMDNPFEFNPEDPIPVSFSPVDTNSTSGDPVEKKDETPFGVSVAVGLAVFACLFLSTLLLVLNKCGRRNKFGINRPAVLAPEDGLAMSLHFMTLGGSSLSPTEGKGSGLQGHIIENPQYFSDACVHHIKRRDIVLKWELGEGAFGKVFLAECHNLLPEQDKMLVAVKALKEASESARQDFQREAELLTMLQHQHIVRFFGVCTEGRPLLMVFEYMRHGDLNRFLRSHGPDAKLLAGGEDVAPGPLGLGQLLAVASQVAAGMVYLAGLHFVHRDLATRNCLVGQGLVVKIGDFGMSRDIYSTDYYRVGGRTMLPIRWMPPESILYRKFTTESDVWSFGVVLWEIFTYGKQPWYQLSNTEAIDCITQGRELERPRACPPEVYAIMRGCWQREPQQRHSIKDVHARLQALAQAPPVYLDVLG

Inhibitor of nuclear factor kappa-B kinase subunit beta, sequence (O14920 whole entry): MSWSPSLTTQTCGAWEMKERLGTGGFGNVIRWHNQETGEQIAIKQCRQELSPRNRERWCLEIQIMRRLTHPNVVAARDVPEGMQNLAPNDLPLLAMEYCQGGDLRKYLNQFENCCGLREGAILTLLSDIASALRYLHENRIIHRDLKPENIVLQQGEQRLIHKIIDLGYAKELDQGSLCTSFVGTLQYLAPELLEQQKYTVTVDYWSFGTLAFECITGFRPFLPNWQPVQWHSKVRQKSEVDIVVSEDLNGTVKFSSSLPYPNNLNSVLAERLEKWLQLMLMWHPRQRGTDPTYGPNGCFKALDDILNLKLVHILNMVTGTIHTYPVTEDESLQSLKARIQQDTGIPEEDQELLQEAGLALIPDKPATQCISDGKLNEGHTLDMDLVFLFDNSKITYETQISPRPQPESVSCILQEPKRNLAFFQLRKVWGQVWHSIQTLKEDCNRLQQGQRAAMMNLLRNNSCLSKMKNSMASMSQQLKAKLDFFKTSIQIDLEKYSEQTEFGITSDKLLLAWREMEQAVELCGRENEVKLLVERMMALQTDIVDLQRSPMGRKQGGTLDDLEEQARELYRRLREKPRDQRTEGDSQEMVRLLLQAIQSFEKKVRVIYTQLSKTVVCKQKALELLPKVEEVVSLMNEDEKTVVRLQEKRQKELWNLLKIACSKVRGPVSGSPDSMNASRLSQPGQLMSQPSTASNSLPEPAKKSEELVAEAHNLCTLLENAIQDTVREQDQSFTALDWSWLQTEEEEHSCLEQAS
Cyclin-dependent kinase 1/cyclin B1, sequence (P06493 whole entry): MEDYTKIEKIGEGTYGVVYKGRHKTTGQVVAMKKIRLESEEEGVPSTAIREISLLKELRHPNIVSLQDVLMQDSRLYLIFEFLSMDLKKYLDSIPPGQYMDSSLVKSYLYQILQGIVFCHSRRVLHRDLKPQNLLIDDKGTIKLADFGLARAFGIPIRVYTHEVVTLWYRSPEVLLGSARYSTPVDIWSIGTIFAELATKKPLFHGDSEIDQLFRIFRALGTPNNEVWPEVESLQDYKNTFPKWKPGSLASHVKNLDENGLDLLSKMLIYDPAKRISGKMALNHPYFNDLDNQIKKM
Cyclin-dependent kinase 1/cyclin B1, sequence (P14635 whole entry, further chain): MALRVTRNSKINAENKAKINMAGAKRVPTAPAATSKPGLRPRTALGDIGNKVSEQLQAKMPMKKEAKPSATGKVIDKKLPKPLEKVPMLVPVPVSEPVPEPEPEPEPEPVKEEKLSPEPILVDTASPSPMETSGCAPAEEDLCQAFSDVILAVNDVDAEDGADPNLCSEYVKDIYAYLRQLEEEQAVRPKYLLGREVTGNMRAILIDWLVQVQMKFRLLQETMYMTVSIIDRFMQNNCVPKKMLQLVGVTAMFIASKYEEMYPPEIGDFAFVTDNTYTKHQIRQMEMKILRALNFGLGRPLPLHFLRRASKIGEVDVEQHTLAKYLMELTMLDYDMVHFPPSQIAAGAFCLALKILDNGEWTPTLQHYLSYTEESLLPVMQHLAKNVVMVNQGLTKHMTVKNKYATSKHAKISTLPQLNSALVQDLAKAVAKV
Cyclin-dependent kinase 1/cyclin B1 (Homo sapiens), sequence (P06493 whole entry, looked up): as the sequence (P06493 whole entry) above
Cyclin-dependent kinase 1/cyclin B1 (Homo sapiens), sequence (P14635 whole entry, looked up): as the sequence (P14635 whole entry, further chain) above

pIC50 (KB): 5.88
pIC50 [2]: 5.00
solubility [4]: 10 µg/mL (≈ 0.0296 mM)
pIC50 [7]: 8.72
Residual activity [8]: 90%
inhibition [10]: Active
solubility [11]: 3000 µg/mL (≈ 8.87 mM)
solubility [13]: 2700 µg/mL (≈ 7.98 mM)
pIC50 [17]: 7.89
pIC50 (MCF7): 5.92
pIC50 [20]: 5.40
solubility [21]: 200 µg/mL (≈ 0.591 mM)
inhibition [23]: 9%
SMILES: O=C1Nc2ccc([N+](=O)[O-])cc2/C1=C1/Nc2ccc(O)cc2/C1=N/O
Activity [1]: 5.59%
Activity [3]: 5.67%
Activity [5]: 7.96%
Activity [6]: 74.5%
Activity [9]: 8.16%
Activity (RK3E [12]): Active
Activity (Rattus norvegicus): Non-toxic
Activity (RK3E [14]): Active
Activity [15]: 8.16%
Activity (RK3E [16]): Active
Activity [18]: 9.66%
Activity [19]: 57.7%
Activity [22]: 84.3%
